Each structure is given as a SMILES string.

Data set [1] in a line: Spectrophotometric pH titration, experimental determination of pKa. In kind it is physicochemical. Conditions: water titrated with 0.05 M NaOH, extrapolated from absorbance intensity at 430 and 360 nm as a function of pH. Here is the method: The two observed pKas are indicated by the dashed lines at 5.50 and 8.40.
The purified xanthommatin (˜5 mg) was suspended in water (5.00 mL) and titrated to a starting pH of 2.08. The solution was then titrated with 0.05 M NaOH until the pH reached 10.37. During each point in the titration, the solution pH and absorbance was determined. pH levels were measured using a Fisher Scientific Accumet AP 110 pH meter (Fisher Scientific, Waltham, MA).
The pH-dependent color change of a […] solution of xanthommatin was monitored over a pH range of 1.90-10.30 using spectrophotometry. Three distinct patterns were associated with the increasing pH (see FIG. 8). At pH<3.00, the pigment was pale-yellow with a λmax˜430 nm. […] To determine whether the observed intensity in color was reversible at the lower pH values, the pH of xanthommatin was next cycled between acidic (2.00-3.00) and neutral (pH 6.00-8.00) conditions six times, and the absorbance intensity at 430 nm was followed. […]
If the presence or absence of protons were indeed influencing the resultant visible color, then individual acid dissociation constants (Ka) could be experimentally extrapolated and used to follow compositional changes in the biochrome as a function of pH. To test this, it was determined how absorbance intensities varied as a function of pH at both 430 and 360 nm (see FIG. 9). […]

Data set [2] in a line: pH-dependent stability (MSMS analysis of pigment hydrolysis). The class given is physicochemical. Conditions: pH values approached and exceeded 10.00, mass addition of water.
Data set [3] in a line: UV absorbance in vitro, SPF calculated using the Mansur equation, comparison to known UV-filters. The class given is physicochemical. Here is the method: FIG. 12 provides absorbance curves (see top graph) and corresponding comparator values (see table) of Xa to known UV-filters, avo- and oxy-benzone. […] X−1 represents synthetic Xa; X−2 represents Xa extracted from squid at 0.10 mM. SPF was calculated using the Mansur equation and critical wavelength was determined as the wavelength at which 90% of the absorbance curve resides.
Xa is the simplest and most common ommochrome and is formed (along with the reduced dihydro-xanthommatin and ommatin subclasses) via the condensation of two hydroxykynurenine residues in the kynurenine pathway of tryptophan metabolism. Once synthesized, Xa is stabilized within granules (diameter 530 nm) that are resistant to photodegradation. An added predicted functionality, although largely unexplored in vitro and in vivo, is that Xa behaves as a free-radical scavenger. Together, with the data presented in FIG. 12 showing that Xa absorbs UV radiation ˜2× higher than current chemical filters at the same concentrations, it is expected that Xa and Xa-based materials can function as UV-filters that can not only protect against solar irradiation but can also be used in preventative skin care as free-radical scavengers (while maintaining biocompatibility).
(§1) Given its propensity to form granules in natural systems (FIG. 3, left) and its impressive UV-absorptive properties in vitro (FIG. 12, see Table 2 below), Xa was encapsulated within biodegradable particles designed to improve its durability and use as a topical UV-filter. The complex refractive index (RI) of Xa was experimentally determined as 1.92+0.014i. This uniquely high RI is important, especially when considering the design criteria of the particle based UV-filters. For instance, when assembled into nano- and micro-particles, Xa will scatter more light than it absorbs at diameters >200 nm, and this difference is maximized at sizes >[…] (FIG. 13). Because light scattering is an important feature for heat dissipation and reflection for coatings, it can be preferable to design particles with diameters ranging from 1-10 μm.

Data set [4] is described as follows: Hydroxyl radical antioxidant capacity (HORAC) activity assay. The class given is biochemical. Particulars: compared to commercially available antioxidant standard gallic acid. The text has this: FIG. 14 illustrates the hydroxyl radical antioxidant capacity (HORAC) activity assay activity of Xa. The HORAC assay was used to evaluate the application of Xa as a natural antioxidant. Xa consumes hydroxyl radicals produced by the activation of the fenton reagent preventing the degradation of the fluorescein probe.
Oxygen derived species such as superoxide radical, hydrogen peroxide, singlet oxygen and hydroxyl radical are well known to be cytotoxic and have been implicated in the onset of a wide array of human diseases. These “compounds” are often referred to as reactive oxygen species (ROS). ROS normally exist in all aerobic cells in balance with biochemical antioxidants; however, this critical equilibrium can be disrupted due to excess ROS or antioxidant depletion and can result in oxidative stress. Antioxidants are used in cosmetics, pharmaceuticals, food and on the skin directly minimize the undesirable reactions resulting from oxidation caused by ROS. Commonly used antioxidants typically contain a combination of phenol, benzene and alkene functional groups. These key features work to inhibit the propagation of ROS through resonance stabilization of free radicals. […] The ability of particles and pigments (free and encapsulated) to […] ROS are measured using the colorimetric hydroxyl radical antioxidant capacity (HORAC) assay (FIG. 14). […]

The nature of data set [5]: Complex refractive index determination. In kind it is physicochemical.
Source text: as §1

Data set [6] in a line: Electrochromic device (Xa in PEDOT:PSS) redox-dependent color switch, CIE 1931 chromaticity and transmittance. The class given is physicochemical. Particulars: darkest yellow (O3) to red (R3) films, 555 nm. An excerpt:
Even though its exact mechanism for electron transfer remains unknown, phenoxazone-based materials are believed to undergo a reversible reduction to dihydroxanthommatin, gaining two electrons and two protons during its redox-dependent color change. These principles are used to show how the pigment stabilized in a polymer (PEDOT-PSS) matrix is capable of switching color in response to different applied voltages. When a double potential step from +1.5 V to −1.5 V vs ground was applied to the device, a redox-dependent color switch was observed (FIG. 11). The current required to switch from one colored state to another was plotted as a function of time upon application of a square-wave potential (FIG. 10). […] In each case, the switching time for each step was calculated as the time required to reach 95% of the maximum current.
The spectral tunability of these materials was also investigated by varying the ratio between PEDOT:PSS and pigment (FIG. 11). Different concentrations of xanthommatin (from 0.04 mg/ml to 0.16 mg/ml) were used while the amount of PEDOT:PSS remained constant. The color of each film activated at the different redox states was measured using the International Commission of Illumination (CIE) 1931 xy-chromaticity diagram. […]
Because the human eye is most sensitive at 555 nm, all transmittance values were calculated at this wavelength without any background correction.

What is called pKa is the negative logarithm of the acid dissociation constant. Regarding `NC(CC(=O)c1cccc2oc3cc(=O)c4[nH]c(C(=O)O)cc(=O)c4c-3nc12)C(=O)O` (stereo not shown) [Xa, xanthommatin], the pKa in data set [1] was 5.5. The pigment hydrolysis result in data set [2] is “pigment hydrolysis occurred”. Further, the results for the SPF in vitro in data set [3] (0.062 mM), in data set [3] (0.125 mM) and in data set [3] (0.250 mM) were 3, 14 and 38, respectively. For the same molecule, the “UV radiation absorption relative to current chemical filters” value in data set [3] (same concentrations, FIG. 12 comparators avo- and oxy-benzone) was approximately 2 ×. Besides, the HORAC activity entry in data set [4] is recorded as “enhanced activity in comparison to commercially available standard gallic acid”; in data set [4] (listed as Xanthommatin), “enhanced activity when compared to commercially available antioxidant gallic acid”. Besides, the “complex refractive index (RI)” value in data set [5] is listed as 1.92+0.014i. For the same molecule, the “optical contrast (ΔT %)” value in data set [6] is 25.4%.

Source of the values: US12514797B2, “Cosmetic and dermatological compositions” (Northeastern University, priority 2017, dated 2026).
